Assay results from US12527849B2, “Apparatus for determining administration form of a composition of an engineered virus-based nanoparticle for a treatment of an autoimmune condition” (Diamante Srl, priority 2021, dated 2026).

Assays:
IL-17A = test: Pro-inflammatory cytokines in sera of CIA Collagen mice (ELISA, day 58): IL-17A; format: in vivo; details: Dexamethasone oral 1 mg/kg, 20 times between day 28 and 57
Experimental: (§1) Critical administration 124 disclosed herein is further described below. Q5D represents administration 5 days a part. TBSV·pLIp1 and wt TBSV shown in Table 1 may include liquid form that are not sterile and stored in −20° C. TBSV·pLIp1 may be given at the dose of 50 μG/100 μL Male DBA/1J mice (8 weeks; Envigo, Italy) may be used for these studies. Mice may be housed in individual cages (two for each group) and maintained under a 12:12 light-dark cycle at 21° C.±1° C. and 50%±5% humidity. The animals may be acclimated to their environment for 1 week and had ad libitum access to tap water and standard rodent diet. All animal experiments may be complied with regulations in Italy (D.M. 116192), Europe (O.J of E.C. L 358/112/18/1986), and the United States (Animal Welfare Assurance Number A5594-01, Department of Health and Human Services, USA). […] Arthritis was assessed by using qualitative severity score system and hind paw volume (mL) measured by a plethysmometer on day 20, 22, 24, 26, 28, 30, 32, 34, 36, 38, 40, 42, 44, 46 48, 50, 52, 54, 56 and 58. Body weight was recorded on day 0, 6, 13, 16, 18, 20, 22, 24, 26, 28, 30, 32, 34, 36, 38, 40, 42, 44, 46, 50, 52, 54, 56 and 58. […]

MCP-1 = test: Pro-inflammatory cytokines in sera of CIA Collagen mice (ELISA, day 58): MCP-1; format: in vivo; details: Dexamethasone oral 1 mg/kg, 20 times between day 28 and 57
Experimental: as §1

## C[C@@H]1C[C@H]2[C@@H]3CCC4=CC(=O)C=C[C@]4(C)[C@@]3(F)[C@@H](O)C[C@]2(C)[C@@]1(O)C(=O)CO [Dexamethasone, dexamethasone]
IL-17A
  IL-17A, % of reduction vs CIA Collagen: 25.07%
MCP-1
  MCP-1, % of reduction vs CIA Collagen: 30.57%
